The assay relates to IPEC-J2 cells (pig enterocytes). In words: Trans-epithelial electrical resistance (TEER) of IPEC-J2 monolayer. It counts as cell-based. The settings on record: formulations 50 μg/mL, genistein 50 μM. How it is done:
Formulation C with HT:MA:OA at weight ratio 11:50:23 (50 μg/mL) and formulation D with HT:MA:OA at weight ratio 12:50:15 (50 μg/mL) were also tested on a cell line of pig enterocytes (IPEC-J2), at different conditions. IPEC-J2 cells were seeded into a permeable transwells membrane insert (6.5 mm diameter, 0.4 μm pore size, 0.33 cm2, polyester, Costar) at 1×10^5 cells/cm^2 to form a confluent monolayer within 4 days. Medium was replaced 48 h post-seeded and products were added on the apical side. On day 3 post-seeded, cells were treated with LPS (50 ng/mL) on the apical side and 24 h post-LPS stimulation epithelial cell integrity was assessed through the measurement of trans-epithelial electrical resistance (TEER) using a Millicell ERS-2 Voltohmmeter (Millipore, Billerica, Mass.). For each condition, triplicates were carried out in three independent experiments. At the end of incubation apical and basal media were eliminated and RNAlater solution (1 mL/well) was added to the cells for RNA stabilization and storage. Total RNA was extracted using RNA Mini Kit columns from Ambion (Life technologies, Carlsbad, Calif.) and stored at −80° C. for subsequent retrotranscription and quantitative RT-PCR. The extraction of total RNA was carried out using PureLink™ RNA Mini Kit according to the manufacturer's protocol. […]

Our source for the TEER relative to DMSO control values is patent publication US20230181503A1, “FEED ADDITIVE” (LUCTA, S.A., priority 2020, published 2023).

Take `O=c1c(-c2ccc(O)cc2)coc2cc(O)cc(O)c12` [Genistein]: the TEER relative to DMSO control worked out at 107% (IPEC-J2, + LPS 50 ng/mL, 24 h post-LPS, LPS alone = 61.7) and 129% (IPEC-J2, without LPS, Control (DMSO) = 100).
